Results taken from US20250325529A1, “INHIBITORS OF FATTY ACID BINDING PROTEINS (FABPs), METHODS OF USE AND METHODS OF MAKING” (Celloram, inc., priority 2024, published 2025).

Tests used:
FABP3 = FABP3 (Homo sapiens (Human), UniProt P05413); experiment: Fluorescence (ANS) competition binding assay, FABP3; conditions: ANS displacement
Method: (§1) This example illustrates a two-step fluorescence binding assay study used to determine the binding affinity of the various inhibitor compounds disclosed herein with the various FABPs: FABP3, FABP4, FABP5 and FABP7. Further secondary screening studies were carried out for compounds with high binding affinities toward the FABPs and based on their ability to activate the nuclear receptors PPARα, PPARγ, or PPARδ.
(§2) Binding assays for FABP3, FABP4, FABP5 and FABP7 were carried out by fluorescence titrations. His-tagged FABPs were bacterially expressed in E. coli, purified using Ni Sepharose beads, and the equilibrium dissociation constants (Kd) that characterize their interactions with different inhibitor compounds were measured by fluorescence competition assays. The method entails two steps as described in e.g., Lin, Q. et al., “Ligand selectivity of the peroxisome proliferator-activated receptor alpha,” Biochemistry 38, 185-190, doi:10.1021/bi9816094 [pii](1999). In the first step, Kd for the association of the protein with the fluorescent fatty acid probe ANS was measured. Protein (2 μM) was titrated with ANS from a concentrated solution in DMSO. Ligand binding was monitored by following the increase in the fluorescence of the ligand upon binding to the protein, and Kd for the association of ANS with the each FABP was computed from titration curves as described in e.g., Norris, A. W. & Li, E., “Fluorometric titration of the CRABPs,” Methods Mol Biol 89, 123-139 (1998)). In the second step, Kds for binding of non-fluorescent ligands were measured by monitoring their ability to displace ANS in the binding pocket of the protein. Each FABP was precomplexed with ANS at 1:1 molar ratio and titrated with the different compounds whose binding was reflected by a decrease in probe fluorescence. Kds were extracted from the EC50 of the competition curve and the measured Kd for ANS.

PPARα = PPARα (Homo sapiens (Human), UniProt Q07869); experiment: Transcriptional activation assay in COS7 cells, PPARα; assay type: cell-based; conditions: PPRE luciferase reporter, PD151 and PD152 at 10 μM
Method: (§3) COS-7 were cultured in 6-well plates and co-transfected with either a luciferase reporter driven by 3 copies of a PPRE and expression vector for either PPARδ, PPARα or PPARγ together with a vector harboring cDNA for β-galactosidase, serving as a transfection control. To test whether FABP4 or FABP5 mediate activation of their cognate receptors PPARγ and PPARδ, respectively, cells were also co-transfected with a plasmid harboring sequence of either FABP4 or FABP5. 18 h post-transfection, cells were placed in a serum-free medium and treated with agonist/compound. 18 h. later, cells were lysed, luciferase activity was assayed (Promega, WI, USA) and corrected for transfection efficiency by the activity of β-galactosidase.
(§4) Transcriptional activation assays were carried out utilizing COS7 cells as described above.

FABP5 = FABP5 (Homo sapiens (Human), UniProt Q01469); experiment: Fluorescence (ANS) competition binding assay, FABP5; conditions: ANS displacement
Method: as §1, §2

FABP4 = FABP4 (Homo sapiens (Human), UniProt P15090); experiment: Fluorescence (ANS) competition binding assay, FABP4; conditions: ANS displacement
Method: as §1, §2

PPARδ = PPARδ (Homo sapiens (Human), UniProt Q03181); experiment: Transcriptional activation assay in COS7 cells, PPARδ; assay type: cell-based; conditions: PPRE luciferase reporter, PD151 and PD152 at 10 μM
Method: as §3, §4

PPARγ = PPARγ (Homo sapiens (Human), UniProt P37231); experiment: Transcriptional activation assay in COS7 cells, PPARγ; assay type: cell-based; conditions: PPRE luciferase reporter, PD151 and PD152 at 10 μM
Method: as §3, §4

FABP7 = FABP7 (Homo sapiens (Human), UniProt O15540); experiment: Fluorescence (ANS) competition binding assay, FABP7; conditions: ANS displacement
Method: as §1, §2

[1] = test system: Salmonella typhimurium tester strain TA1537; experiment: Ames test (Bacterial Reverse Mutation Test), TA1537; assay type: cell-based
Method: (§5) PD152 (compound 2) was tested for genotoxic and cytotoxic side effects by Ames test. The Ames test is a Bacterial Reverse Mutation Test of mutagenicity that utilizes Salmonella typhimurium tester strains TA98, TA100, TA1535, TA1537 and Escherichia coli tester strain WP2 uvrA (pKM101), both in the presence and absence of S9.
(§6) The compound PD152 was tested at 10 concentrations (0.032-1000 μg/plate) in the presence of, or absence of, the hepatic enzyme S9.
(§7) The aniline FABP4/5 inhibitor compound, 2-((2-((2,4-dichloro-5-isopropoxyphenyl)amino)-2-oxoethyl)thio)-2-methylpropanoic acid (compound “B104” as disclosed in WO2023043803A1) also was tested for genotoxic and cytotoxic side effects by Ames test. […]

[2] = test system: Salmonella typhimurium tester strain TA1535; experiment: Ames test (Bacterial Reverse Mutation Test), TA1535; assay type: cell-based
Method: as §5, §6
(§8) The aniline FABP4/5 inhibitor compound, 2-((2-((2,4-dichloro-5-isopropoxyphenyl)amino)-2-oxoethyl)thio)-2-methylpropanoic acid (compound “B104” as disclosed in WO2023043803A1) also was tested for genotoxic and cytotoxic side effects by Ames test. B104 was tested using the Salmonella typhimurium tester stains TA98, TA100, TA1535, and TA1537, both in the presence and absence of the hepatic enzyme S9, at 5 concentrations (1.5-64 μg/plate).

[3] = test system: Salmonella typhimurium tester strain TA100; experiment: Ames test (Bacterial Reverse Mutation Test), TA100; assay type: cell-based
Method: as §5, §6, §8

[4] = test system: Salmonella typhimurium tester strains TA98, TA100, TA1535, TA1537 and Escherichia coli tester strain WP2 uvrA (pKM101); experiment: Ames test, overall conclusion for the tested strains; assay type: cell-based; conditions: presence and absence of S9
Method: as §5, §6, §8

[5] = test system: Salmonella typhimurium tester strain TA98; experiment: Ames test (Bacterial Reverse Mutation Test), TA98; assay type: cell-based
Method: as §5, §6, §7

[6] = TA1537, absence of S9, 1.5 μg/well
[7] = TA1537, absence of S9, 4 μg/well
[8] = TA1537, absence of S9, 10 μg/well
[9] = TA1537, absence of S9, 25 μg/well
[10] = TA1537, absence of S9, 64 μg/well
[11] = TA1537, presence of S9, 1.5 μg/well
[12] = TA1537, presence of S9, 4 μg/well
[13] = TA1537, presence of S9, 10 μg/well
[14] = TA1537, presence of S9, 25 μg/well
[15] = TA1537, presence of S9, 64 μg/well
[16] = TA1535, absence of S9, 1.5 μg/well
[17] = TA1535, absence of S9, 4 μg/well
[18] = TA1535, absence of S9, 10 μg/well
[19] = TA1535, absence of S9, 25 μg/well
[20] = TA1535, absence of S9, 64 μg/well
[21] = TA1535, presence of S9, 1.5 μg/well
[22] = TA1535, presence of S9, 4 μg/well
[23] = TA1535, presence of S9, 10 μg/well
[24] = TA1535, presence of S9, 25 μg/well
[25] = TA1535, presence of S9, 64 μg/well
[26] = TA100, absence of S9, 1.5 μg/well
[27] = TA100, absence of S9, 4 μg/well
[28] = TA100, absence of S9, 10 μg/well
[29] = TA100, absence of S9, 25 μg/well
[30] = TA100, absence of S9, 64 μg/well
[31] = TA100, presence of S9, 1.5 μg/well
[32] = TA100, presence of S9, 4 μg/well
[33] = TA100, presence of S9, 10 μg/well
[34] = TA100, presence of S9, 25 μg/well
[35] = TA100, presence of S9, 64 μg/well
[36] = TA98, absence of S9, 1.5 μg/well
[37] = TA98, absence of S9, 10 μg/well
[38] = TA98, absence of S9, 25 μg/well
[39] = TA98, absence of S9, 64 μg/well
[40] = TA98, presence of S9, 1.5 μg/well
[41] = TA98, presence of S9, 4 μg/well
[42] = TA98, presence of S9, 10 μg/well
[43] = TA98, presence of S9, 25 μg/well
[44] = TA98, presence of S9, 64 μg/well

FABP3, sequence (P05413 whole entry, species assumed): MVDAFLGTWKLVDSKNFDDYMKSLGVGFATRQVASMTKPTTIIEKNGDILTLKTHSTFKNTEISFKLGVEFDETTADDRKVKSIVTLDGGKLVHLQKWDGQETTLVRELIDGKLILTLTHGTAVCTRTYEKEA
FABP5, sequence (Q01469 whole entry, species assumed): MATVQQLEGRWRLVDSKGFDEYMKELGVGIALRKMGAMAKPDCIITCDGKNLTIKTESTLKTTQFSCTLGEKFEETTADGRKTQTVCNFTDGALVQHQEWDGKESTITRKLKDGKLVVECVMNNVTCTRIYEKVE
PPARγ, sequence (P37231 whole entry, species assumed): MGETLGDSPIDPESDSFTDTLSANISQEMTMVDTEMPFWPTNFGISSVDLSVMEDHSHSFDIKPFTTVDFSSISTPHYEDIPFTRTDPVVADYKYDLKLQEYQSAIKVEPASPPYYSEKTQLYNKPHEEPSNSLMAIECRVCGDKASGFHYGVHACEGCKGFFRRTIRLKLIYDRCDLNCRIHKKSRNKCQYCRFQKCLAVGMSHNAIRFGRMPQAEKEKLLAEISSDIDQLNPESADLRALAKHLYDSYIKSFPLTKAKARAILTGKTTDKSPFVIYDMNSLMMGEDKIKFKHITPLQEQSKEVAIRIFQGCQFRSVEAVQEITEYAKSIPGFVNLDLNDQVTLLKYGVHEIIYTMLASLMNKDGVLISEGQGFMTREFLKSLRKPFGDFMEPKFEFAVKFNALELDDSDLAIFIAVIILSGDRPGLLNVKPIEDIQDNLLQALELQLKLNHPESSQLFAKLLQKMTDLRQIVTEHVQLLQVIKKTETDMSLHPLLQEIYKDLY
FABP4, sequence (P15090 whole entry, species assumed): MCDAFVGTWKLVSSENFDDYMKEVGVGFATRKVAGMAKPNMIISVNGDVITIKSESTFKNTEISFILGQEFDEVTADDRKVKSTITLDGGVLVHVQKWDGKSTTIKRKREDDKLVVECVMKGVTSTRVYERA
FABP7, sequence (O15540 whole entry, species assumed): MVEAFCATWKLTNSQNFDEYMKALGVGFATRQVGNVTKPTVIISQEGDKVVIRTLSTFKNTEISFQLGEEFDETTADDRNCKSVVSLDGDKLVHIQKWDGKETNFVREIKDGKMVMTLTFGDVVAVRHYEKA
PPARδ, sequence (Q03181 whole entry, species assumed): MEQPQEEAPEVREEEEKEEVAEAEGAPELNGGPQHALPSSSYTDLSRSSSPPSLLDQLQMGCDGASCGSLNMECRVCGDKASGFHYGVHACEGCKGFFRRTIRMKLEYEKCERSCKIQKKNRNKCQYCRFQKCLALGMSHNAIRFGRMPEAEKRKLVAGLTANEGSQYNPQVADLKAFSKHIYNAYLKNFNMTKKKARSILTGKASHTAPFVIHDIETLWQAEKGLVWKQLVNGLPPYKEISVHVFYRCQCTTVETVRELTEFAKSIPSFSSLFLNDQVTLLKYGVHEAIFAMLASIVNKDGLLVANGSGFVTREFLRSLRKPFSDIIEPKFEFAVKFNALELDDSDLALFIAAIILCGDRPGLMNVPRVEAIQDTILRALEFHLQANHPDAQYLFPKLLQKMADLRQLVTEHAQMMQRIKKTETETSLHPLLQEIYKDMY
PPARα, sequence (Q07869 whole entry, species assumed): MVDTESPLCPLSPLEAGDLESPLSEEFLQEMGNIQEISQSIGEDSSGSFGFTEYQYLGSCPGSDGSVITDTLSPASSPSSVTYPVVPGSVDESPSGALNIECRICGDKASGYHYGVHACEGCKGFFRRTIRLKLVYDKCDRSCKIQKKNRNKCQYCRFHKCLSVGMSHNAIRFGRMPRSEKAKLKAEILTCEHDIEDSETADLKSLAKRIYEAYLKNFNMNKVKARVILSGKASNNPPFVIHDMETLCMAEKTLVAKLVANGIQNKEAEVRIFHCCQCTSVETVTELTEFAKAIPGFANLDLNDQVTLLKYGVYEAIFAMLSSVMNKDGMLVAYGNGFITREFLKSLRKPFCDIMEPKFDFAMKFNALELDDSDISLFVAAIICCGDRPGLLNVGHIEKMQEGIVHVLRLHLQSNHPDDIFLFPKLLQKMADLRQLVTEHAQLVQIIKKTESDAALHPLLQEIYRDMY

## CC(C)Oc1ccc(Cl)c(NC(=O)CSCC(=O)O)n1 [PD152.2, 2-((2-((3-chloro-6-isopropoxypyridin-2-yl)amino)-2-oxoethyl)thio)acetic acid]
FABP3
  Kd: 125 nM
PPARα
  Activation of transcription by PPARα: None of these tested compounds activated
FABP5
  Kd: 141 nM
FABP4
  Kd: 72 nM
PPARδ
  Activation of transcription by PPARδ: None of these tested compounds activated
PPARγ
  Activation of transcription by PPARγ: None of these tested compounds activated
FABP7
  Kd: 1000 nM

## CC(C)Oc1cc(NC(=O)CSC(C)(C)C(=O)O)c(Cl)cc1Cl [Compound B104, 2-((2-((2,4-dichloro-5-isopropoxyphenyl)amino)-2-oxoethyl)thio)-2-methylpropanoic acid, reference compound]
[1]; [6]
  Fold increase: 0.43
  Mean number of revertants: 2.0
[1]; [7]
  Fold increase: 0.32
  Mean number of revertants: 1.5
[1]; [8]
  Fold increase: 0.21
  Mean number of revertants: 1.0
[1]; [9]
  Fold increase: 0
  Mean number of revertants: 0
[1]; [10]
  Fold increase: 0
  Mean number of revertants: 0
[1]; [11]
  Fold increase: 1.71
  Mean number of revertants: 4.0
[1]; [12]
  Fold increase: 2.36
  Mean number of revertants: 5.5
[1]; [13]
  Fold increase: 1.29
  Mean number of revertants: 3.0
[1]; [14]
  Fold increase: 1.07
  Mean number of revertants: 2.5
[1]; [15]
  Fold increase: 2.14
  Mean number of revertants: 5.0
[2]; [16]
  Fold increase: 1.20
  Mean number of revertants: 4
[2]; [17]
  Fold increase: 2.20
  Mean number of revertants: 7.33
[2]; [18]
  Fold increase: 1.40
  Mean number of revertants: 4.67
[2]; [19]
  Fold increase: 0.20
  Mean number of revertants: 0.67
[2]; [20]
  Fold increase: 0
  Mean number of revertants: 0
[2]; [21]
  Fold increase: 0.89
  Mean number of revertants: 5.67
[2]; [22]
  Fold increase: 1
  Mean number of revertants: 6.33
[2]; [23]
  Fold increase: 1.06
  Mean number of revertants: 6.67
[2]; [24]
  Fold increase: 1.68
  Mean number of revertants: 10.67
[2]; [25]
  Fold increase: 1
  Mean number of revertants: 6.33
[3]; [26]
  Fold increase: 0.8
  Mean number of revertants: 52
[3]; [27]
  Fold increase: 1.05
  Mean number of revertants: 68
[3]; [28]
  Fold increase: 0.86
  Mean number of revertants: 56
[3]; [29]
  Fold increase: 0
  Mean number of revertants: 0
[3]; [30]
  Fold increase: 0
  Mean number of revertants: 0.67
[3]; [31]
  Fold increase: 3
  Mean number of revertants: 387
[3]; [32]
  Fold increase: 5.18
  Mean number of revertants: 658
[3]; [33]
  Fold increase: 6.68
  Mean number of revertants: 849
[3]; [34]
  Fold increase: 6.55
  Mean number of revertants: 833
[3]; [35]
  Fold increase: 4.44
  Mean number of revertants: 564.5
[4]
  Cytotoxicity to the tested strains: some level of cytotoxicity
  Mutagenicity in the Ames test: positive mutagenic responses
[5]; [36]
  Fold increase: 1.26
  Mean number of revertants: 16
[5]; TA98, absence of S9, 4 μg/well
  Fold increase: 0.84
  Mean number of revertants: 10.67
[5]; [37]
  Fold increase: 0.97
  Mean number of revertants: 12.33
[5]; [38]
  Fold increase: 0
  Mean number of revertants: 0.33
[5]; [39]
  Fold increase: 0
  Mean number of revertants: 0.66
[5]; [40]
  Fold increase: 1.2
  Mean number of revertants: 20.67
[5]; [41]
  Fold increase: 2.3
  Mean number of revertants: 39
[5]; [42]
  Fold increase: 2.88
  Mean number of revertants: 49
[5]; [43]
  Fold increase: 2.7
  Mean number of revertants: 47.67
[5]; [44]
  Fold increase: 1.5
  Mean number of revertants: 26
